Measured values from patent publication US6495604B1, “Cycloalkene derivatives, process for producing the same, and use” (Takeda Chemical Industries, Ltd., priority 1998, dated 2002).

Tested on: NO production by RAW264.7 cell
Assay: NO production-inhibiting effect in RAW264.7 cells (nitrite ion by DAN fluorescence)
Format: cell-based, mouse
Conditions: LPS 5 ng/ml + interferon gamma 1 U/ml, nitrite ion in culture supernatant after overnight incubation
Description: Mouse macrophage cell line RAW264.7 was used as an iNOS-inducible cell and a test compound was examined for its % inhibition of NO production. The test compound was dissolved at 10 mM in N,N-dimethylformamide and diluted with an RPMI-1640 medium at the concentration of 0.1 mM. The concentration was further adjusted using the medium so that a final concentration ranging from 10 μM to 10 nM could be obtained by a 10-fold serial dilution and the test compound was added to a culture medium. On the day before the experiment, the cell was adjusted at 5×10^5/ml in an RPMI-1640 medium supplemented with 10% inactivated fetal calf serum and inoculated to a 96-well microplate at 1×10^5 cells/0.2 ml per well. After incubating at 37° C. under an atmosphere of 5% CO2/95% air overnight, the test compound adjusted as described above was added and then LPS and interferon gamma were added at the final concentrations of 5 ng/ml and 1 U/ml, respectively. After further incubating overnight, culture supernatants were examined for the concentration of nitrite ion (stable metabolite of NO) which was used as an index for the NO production. The nitrite ion concentration was determined by adding 25 μl of 20 μg/ml of 2,3-diaminonaphthalene (DAN) to 50 μl of the culture supernatant, followed by incubating at room temperature for 10 minutes, followed by adding 25 μl of 0.5 N NaOH, followed by determining a fluorescence at 450 nm (excitation wavelength: 365 nm). An IC50 represents the concentration of the test compound which inhibits 50% of the NO production.

[1] = Mus musculus, RAW264.7, RAW264.7

SMILES	IC50 [1] [µM]	also measured
CCOC(=O)C1=CCCCC1S(=O)(=O)N(C)c1ccc(Cl)cc1F (stereo not drawn) [Compound 2, ethyl 6-[N-(4-chloro-2-fluorophenyl)-N-methylsulfamoyl]-1-cyclohexene-1-carboxylate]	1.1	–
CCOC(=O)C1=CCCCC1S(=O)(=O)Nc1c(C(C)C)cccc1C(C)C (stereo not drawn) [Compound 4, ethyl 6-[N-(2,6-diisopropylphenyl)sulfamoyl]-1-cyclohexene-1-carboxylate]	2.6	–
CCOC(=O)C1=CCCCC1S(=O)(=O)Nc1ccc([N+](=O)[O-])cc1 (stereo not drawn) [Compound 5, ethyl 6-[N-(4-nitrophenyl)sulfamoyl]-1-cyclohexene-1-carboxylate]	–	IC50 (Mus musculus, RAW264.7): 3.7 µM
CCOC(=O)C1=CCCCC1S(=O)(=O)Nc1ccccc1 (stereo not drawn) [Compound 6, ethyl 6-(N-phenylsulfamoyl)-1-cyclohexene-1-carboxylate]	0.59	–
CCOC(=O)C1=C(S(=O)(=O)Nc2ccccc2)CCCC1 [Compound 7, ethyl 2-(N-phenylsulfamoyl)-1-cyclohexene-1-carboxylate]	4	–
CCOC(=O)C1=C(S(=O)(=O)Nc2ccc(OC)cc2)CCCC1 [Compound 8, ethyl 2-[N-(4-methoxyphenyl)sulfamoyl]-1-cyclohexene-1-carboxylate]	4.8	–
CCOC(=O)C1=C(S(=O)(=O)Nc2ccc(Cl)cc2F)CCCC1 [Compound 9, ethyl 2-[N-(4-chloro-2-fluorophenyl)sulfamoyl]-1-cyclohexene-1-carboxylate]	4.1	–
CCOC(=O)C1=CCCCC1S(=O)(=O)Nc1ccccc1F (stereo not drawn) [Compound 10, ethyl 6-[N-(2-fluorophenyl)sulfamoyl]-1-cyclohexene-1-carboxylate]	0.058	–
CCOC(=O)C1=CCCCC1S(=O)(=O)Nc1ccc(F)cc1 (stereo not drawn) [Compound 12, ethyl 6-[N-(4-fluorophenyl)sulfamoyl)-1-cyclohexene-1-carboxylate]	0.18	–
CCOC(=O)C1=CCCCC1S(=O)(=O)Nc1c(F)cccc1F (stereo not drawn) [Compound 13, ethyl 6-[N-(2,6-difluorophenyl)sulfamoyl]-1-cyclohexene-1-carboxylate]	0.46	–
CCOC(=O)C1=CCCCC1S(=O)(=O)Nc1cccc(F)c1F (stereo not drawn) [Compound 14, ethyl 6-[N-(2,3-difluorophenyl)sulfamoyl]-1-cyclohexene-1-carboxylate]	0.59	–
CCOC(=O)C1=CCCCC1S(=O)(=O)Nc1cc(F)ccc1F (stereo not drawn) [Compound 15, ethyl 6-[N-(2,5-difluorophenyl)sulfamoyl]-1-cyclohexene-1-carboxylate]	0.28	–
CCOC(=O)C1=CCCCC1S(=O)(=O)Nc1ccc(F)c(F)c1 (stereo not drawn) [Compound 16, ethyl 6-[N-(3,4-difluorophenyl)sulfamoyl]-1-cyclohexene-1-carboxylate]	0.18	–
CCOC(=O)C1=CCCCC1S(=O)(=O)Nc1cc(F)cc(F)c1 (stereo not drawn) [Compound 17, ethyl 6-[N-(3,5-difluorophenyl)sulfamoyl]-1-cyclohexene-1-carboxylate]	2.6	–
CCOC(=O)C1=C(S(=O)(=O)Nc2ccc(F)cc2)CCCC1 [Compound 18, ethyl 2-[N-(4-fluorophenyl)sulfamoyl)-1-cyclohexene-1-carboxylate]	4.4	–
CCOC(=O)C1=CCCCC1S(=O)(=O)Nc1ccc(F)cc1F (stereo not drawn) [Compound 19, 1-ethyl 6-[N-(2,4-difluorophenyl)sulfamoyl]-1-cyclohexene-1-carboxylate]	–	IC50 (RAW264.7): 2 µM
CCOC(=O)C1=CCCCC1S(=O)(=O)Nc1ccccc1C(=O)OCC (stereo not drawn) [Compound 21, ethyl 6-[N-(2-ethoxycarbonylphenyl)sulfamoyl]-1-cyclohexene-1-carboxylate]	2.4	–
COC(=O)C1=CCCCC1S(=O)(=O)Nc1ccc(F)cc1F (stereo not drawn) [Compound 22, methyl 6-[N-(2,4-difluorophenyl)sulfamoyl]-1-cyclohexene-1-carboxylate]	0.18	–
CCCOC(=O)C1=CCCCC1S(=O)(=O)Nc1ccc(F)cc1F (stereo not drawn) [Compound 23, propyl 6-[N-(2,4-difluorophenyl)sulfamoyl]-1-cyclohexene-1-carboxylate]	0.027	–
COC(=O)C1=CCCCC1S(=O)(=O)Nc1ccc(Cl)cc1F (stereo not drawn) [Compound 24, methyl 6-[N-(4-chloro-2-fluorophenyl)sulfamoyl]-1-cyclohexene-1-carboxylate]	0.78	–
CC(C)OC(=O)C1=CCCCC1S(=O)(=O)Nc1ccc(F)cc1F (stereo not drawn) [Compound 25, isopropyl 6-[N-(2,4-difluorophenyl)sulfamoyl]-1-cyclohexene-1-carboxylate]	0.32	–

SMILES	IC50 [1] [µM]	also measured
CCOC(=O)C1=CCCCC1S(=O)(=O)Nc1ccccc1C(=O)OC (stereo not drawn) [Compound 26, ethyl 6-[N-(2-methoxycarbonylphenyl)sulfamoyl]-1-cyclohexene-1-carboxylate]	3.3	–
CCOC(=O)C1=CCCCC1S(=O)(=O)Nc1ccc(C)cc1F (stereo not drawn) [Compound 27, ethyl 6-[N-(2-fluoro-4-methylphenyl)sulfamoyl]-1-cyclohexene-1-carboxylate]	0.25	–
CCOC(=O)C1=CCCCC1S(=O)(=O)Nc1ccccc1Cl (stereo not drawn) [Compound 28, ethyl 6-[N-(2-chlorophenyl)sulfamoyl]-1-cyclohexene-1-carboxylate]	0.029	–
CCOC(=O)C1=CCCCC1S(=O)(=O)Nc1ccc(F)cc1Cl (stereo not drawn) [Compound 29, ethyl 6-[N-(2-chloro-4-fluorophenyl)sulfamoyl]-1-cyclohexene-1-carboxylate]	0.0093	–
CCOC(=O)C1=CCCCC1S(=O)(=O)Nc1ccc(Cl)cc1 (stereo not drawn) [Compound 30, ethyl 6-[N-(4-chlorophenyl)sulfamoyl]-1-cyclohexene-1-carboxylate]	–	IC50 (Mus musculus, RAW264.7): 0.54 µM
CCOC(=O)C1=CCCCC1S(=O)(=O)Nc1ccc(F)c(F)c1F (stereo not drawn) [Compound 31, ethyl 6-[N-(2,3,4-trifluorophenyl)sulfamoyl]-1-cyclohexene-1-carboxylate]	0.23	–
CC(C)COC(=O)C1=CCCCC1S(=O)(=O)Nc1ccc(F)cc1F (stereo not drawn) [Compound 32, isobutyl 6-[N-(2,4-difluorophenyl)sulfamoyl]-1-cyclohexene-1-carboxylate]	0.23	–
CCCCOC(=O)C1=CCCCC1S(=O)(=O)Nc1ccc(F)cc1F (stereo not drawn) [Compound 33, butyl 6-[N-(2,4-difluorophenyl)sulfamoyl]-1-cyclohexene-1-carboxylate]	0.26	–
CCOC(=O)C1=CCCCC1S(=O)(=O)Nc1ccc(Br)cc1F (stereo not drawn) [Compound 34, ethyl 6-[N-(4-bromo-2-fluorophenyl)sulfamoyl]-1-cyclohexene-1-carboxylate]	0.35	–
CCOC(=O)C1=CCCCC1S(=O)(=O)Nc1ccc(Cl)cc1Cl (stereo not drawn) [Compound 35, ethyl 6-[N-(2,4-dichlorophenyl)sulfamoyl]-1-cyclohexene-1-carboxylate]	0.082	–
CCOC(=O)C1=CCCCC1S(=O)(=O)Nc1cccc(Cl)c1 (stereo not drawn) [Compound 37, ethyl 6-[N-(3-chlorophenyl)sulfamoyl]-1-cyclohexene-1carboxylate]	–	IC50 (Mus musculus, RAW264.7): 0.13 µM
CCOC(=O)C1=CCCCC1S(=O)(=O)Nc1cccc(Cl)c1Cl (stereo not drawn) [Compound 38, ethyl 6-[N-(2,3-dichlorophenyl)sulfamoyl]-1-cyclohexene-1-carboxylate]	0.041	–
CCOC(=O)C1=CCCCC1S(=O)(=O)Nc1ccccc1CC (stereo not drawn) [Compound 39, ethyl 6-[N-(2-ethylphenyl)sulfamoyl]-1-cyclohexene-1-carboxylate]	–	IC50 (Mus musculus, RAW264.7): 0.32 µM
CCOC(=O)C1=CCCCC1S(=O)(=O)Nc1ccc(-n2nccn2)cc1 (stereo not drawn) [Compound 40, ethyl 6-[N-[4-(2H-1,2,3-triazol-2-yl)phenyl)sulfamoyl]-1-cyclohexene-1-carboxylate]	2.5	–
CCOC(=O)C1=CCCCC1S(=O)(=O)Nc1cc(Cl)ccc1Cl (stereo not drawn) [Compound 41, ethyl 6-[N-(2,5-dichlorophenyl)sulfamoyl]-1-cyclohexene-1-carboxylate]	0.24	–
CCOC(=O)C1=CCCCC1S(=O)(=O)Nc1ccccc1OC(F)(F)F (stereo not drawn) [Compound 42, ethyl 6-[N-(2-trifluoromethoxyphenyl)sulfamoyl]-1-cyclohexene-1-carboxylate]	1.1	–
CCOC(=O)C1=CCCCC1S(=O)(=O)Nc1cc(F)c(F)cc1F (stereo not drawn) [Compound 43, ethyl 6-[N-(2,4,5-trifluorophenyl)sulfamoyl]-1-cyclohexene-1-carboxylate]	0.073	–
CCOC(=O)C1=CCCCC1S(=O)(=O)Nc1ccc(-n2ncnn2)cc1 (stereo not drawn) [Compound 44, ethyl 6-[N-[4-(2H-tetrazol-2-yl)phenyl)sulfamoyl]-1-cyclohexene-1-carboxylate]	3.7	–
CCOC(=O)C1=CCCCC1S(=O)(=O)Nc1ccc(C)cc1Cl (stereo not drawn) [Compound 45, ethyl 6-[N-(2-chloro-4-methylphenyl)sulfamoyl]-1-cyclohexene-1-carboxylate]	0.027	–
CCOC(=O)C1=CCCCC1S(=O)(=O)Nc1ccc(F)cc1C (stereo not drawn) [Compound 46, ethyl 6-[N-(4-fluoro-2-methylphenyl)sulfamoyl]-1-cyclohexene-1-carboxylate]	0.054	–
CCOC(=O)C1=CCCCC1S(=O)(=O)Nc1c(Cl)cccc1Cl (stereo not drawn) [Compound 47, ethyl 6-[N-(2,6-dichlorophenyl)sulfamoyl]-1-cyclohexene-1-carboxylate]	0.048	–
